Consider 1 compound from PMC2689245, “Purification and characterization of a serine protease (CESP) from mature coconut endosperm” (BMC Research Notes, 2009).

The test deals with T1, CESP (coconut endosperm protease).
T1 construct: native, purified from fully matured coconut kernel (endosperm)
The test is described as follows: p-nitroaniline release at […] nm. In kind it is biochemical, Cocos nucifera. Particulars: 100 mM Tris HCl pH 8.5, 37 °C.

As a reminder, the Km is the concentration of substrate that gives half-maximal velocity.

For `N=C(N)NCCCC(NC(=O)c1ccccc1)C(=O)Nc1ccc([N+](=O)[O-])cc1` (racemic) [BAPNA], the Km is 200 µM.
